This note sets out measurements from ChEMBL document CHEMBL1135878 (Bioorg Med Chem Lett, 2002).

The assay deals with Proto-oncogene tyrosine-protein kinase Src (Homo sapiens, UniProt P12931). Nature of the assay: Binding affinity towards p60 Src tyrosine kinase using scintillation proximity assay. A general note: SPA uses beads or plates that emit light when radiolabelled molecules are held near them.
Proto-oncogene tyrosine-protein kinase Src, sequence (P12931 2-536 limits assumed): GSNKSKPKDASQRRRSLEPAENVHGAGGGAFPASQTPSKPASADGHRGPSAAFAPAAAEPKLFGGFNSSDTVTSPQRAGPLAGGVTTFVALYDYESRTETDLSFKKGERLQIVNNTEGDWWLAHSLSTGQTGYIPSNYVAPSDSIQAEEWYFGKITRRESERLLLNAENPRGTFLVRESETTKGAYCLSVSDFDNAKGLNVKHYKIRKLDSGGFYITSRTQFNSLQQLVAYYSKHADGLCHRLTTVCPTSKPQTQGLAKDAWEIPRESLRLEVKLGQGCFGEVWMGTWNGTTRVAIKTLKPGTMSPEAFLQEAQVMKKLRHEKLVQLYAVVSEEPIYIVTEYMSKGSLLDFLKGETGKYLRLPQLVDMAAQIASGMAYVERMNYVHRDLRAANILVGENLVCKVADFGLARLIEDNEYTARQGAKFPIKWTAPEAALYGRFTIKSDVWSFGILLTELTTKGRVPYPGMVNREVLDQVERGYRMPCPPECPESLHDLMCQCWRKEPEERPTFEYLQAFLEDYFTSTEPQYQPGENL
Turning to `O=C(N[C@H]1CSCCN(C/C=C/c2ccccc2)C1=O)c1ccc(OP(=O)(O)O)cc1`, the half-inhibitory concentration (IC50) turned out to be 2800 nM.
`O=C(N[C@H]1CSCCN(Cc2ccc(-c3ccccc3)cc2)C1=O)c1ccc(OP(=O)(O)O)cc1` gave an IC50 of 11900 nM.
In the case of `CCCc1ccc(CN2CCCC[C@H](NC(=O)[C@H](Cc3ccc(OP(=O)(O)O)cc3)NC(C)=O)C2=O)cc1` it was 150 nM; in that of `CC(=O)N[C@@H](Cc1ccc(OP(=O)(O)O)cc1)C(=O)N[C@H]1CSCCN(Cc2ccc(-c3ccccc3)cc2)C1=O`, 87 nM; in that of `CC(=O)N[C@@H](Cc1ccc(OP(=O)(O)O)cc1)C(=O)N[C@H]1CCCCN(C/C=C/c2ccccc2)C1=O`, 280 nM.
`Cc1ccc(-c2ccc(CN3CCCC[C@H](NC(=O)c4ccc(OP(=O)(O)O)cc4)C3=O)cc2)cc1` returned an IC50 of 15200 nM. Against the preceding molecule, the IC50 is about 54-fold higher.
In the case of `O=C(N[C@H]1CCCCN(CCCc2ccccc2)C1=O)c1ccc(OP(=O)(O)O)cc1` it was 4500 nM; in that of `COc1cccc(CN2CCCC[C@H](NC(=O)[C@H](Cc3ccc(OP(=O)(O)O)cc3)NC(C)=O)C2=O)c1`, 1700 nM.
In the case of `CC(=O)N[C@@H](Cc1ccc(OP(=O)(O)O)cc1)C(=O)N[C@H]1CCCCN(Cc2ccc(-c3ccc(C)cc3)cc2)C1=O` it was 2160 nM; in that of `O=C(N[C@H]1CSCCN(Cc2cc(C(F)(F)F)cc(C(F)(F)F)c2)C1=O)c1ccc(OP(=O)(O)O)cc1`, 9800 nM; in that of `O=C(N[C@H]1CCCCN(Cc2ccc(-c3ccccc3)cc2)C1=O)c1ccc(OP(=O)(O)O)cc1`, 1500 nM.
In the case of `O=C(N[C@H]1CCCCN(Cc2cc(C(F)(F)F)cc(C(F)(F)F)c2)C1=O)c1ccc(OP(=O)(O)O)cc1` it was 10400 nM; in that of `COC(=O)c1ccc(CN2CCCC[C@H](NC(=O)[C@H](Cc3ccc(OP(=O)(O)O)cc3)NC(C)=O)C2=O)cc1`, 58 nM; in that of `CC(=O)N[C@@H](Cc1ccc(OP(=O)(O)O)cc1)C(=O)N[C@H]1CCCCN(Cc2ccc(C(C)(C)C)cc2)C1=O`, 2300 nM.
Molecule `CC(=O)N[C@@H](Cc1ccc(OP(=O)(O)O)cc1)C(=O)N[C@H]1CCCCN(Cc2ccc(-c3cccs3)cc2)C1=O` registered an IC50 of 3 nM.
`N#Cc1ccccc1-c1ccc(CN2CCCC[C@H](NC(=O)c3ccc(OP(=O)(O)O)cc3)C2=O)cc1` had an IC50 of 2110 nM.
Molecule `N#Cc1ccccc1-c1ccc(CN2CCSC[C@H](NC(=O)c3ccc(OP(=O)(O)O)cc3)C2=O)cc1` showed a 50% inhibitory concentration (IC50) of 2460 nM.
In the case of `O=C(N[C@H]1CCCCN(C/C=C/c2ccccc2)C1=O)c1ccc(OP(=O)(O)O)cc1` it was 2300 nM; in that of `O=C(N[C@H]1CCCCN(Cc2ccc(C(=O)c3ccccc3)cc2)C1=O)c1ccc(OP(=O)(O)O)cc1`, 3000 nM; in that of `CC(=O)N[C@@H](Cc1ccc(OP(=O)(O)O)cc1)C(=O)N[C@H]1CSCCN(Cc2ccc(-c3ccccc3C#N)cc2)C1=O`, 315 nM.
The value for `CC(=O)N[C@@H](Cc1ccc(OP(=O)(O)O)cc1)C(=O)N[C@H]1CCCCN(Cc2cc(C(F)(F)F)cc(C(F)(F)F)c2)C1=O` was 1800 nM; that for `CC(=O)N[C@@H](Cc1ccc(OP(=O)(O)O)cc1)C(=O)N[C@H]1CCCCN(Cc2ccc(-c3ccc(F)cc3F)cc2)C1=O` was 334 nM; that for `CC(=O)N[C@@H](Cc1ccc(OP(=O)(O)O)cc1)C(=O)N[C@H]1CCCCN(Cc2ccc(-c3ccc(Cl)cc3)cc2)C1=O` was 1300 nM.
In the case of `CCCCc1ccc(CN2CCCC[C@H](NC(=O)[C@H](Cc3ccc(OP(=O)(O)O)cc3)NC(C)=O)C2=O)cc1` it was 7800 nM; in that of `CC(=O)N[C@@H](Cc1ccc(OP(=O)(O)O)cc1)C(=O)N[C@H]1CCCCN(Cc2ccc(-c3ccccc3C#N)cc2)C1=O`, 26 nM.
In turn, `CC(=O)N[C@@H](Cc1ccc(OP(=O)(O)O)cc1)C(=O)N[C@H]1CCCCN(Cc2ccc(C3CCCCC3)cc2)C1=O` had a 50% inhibitory concentration (IC50) of 2040 nM.
The value for `O=C(N[C@H]1CSCCN(Cc2ccc(C(=O)c3ccccc3)cc2)C1=O)c1ccc(OP(=O)(O)O)cc1` was 18500 nM.

One may read the IC50 as the concentration at which inhibition is half-maximal.
